Data reported in ChEMBL document CHEMBL1139649, “Hetaryl imidazoles: a novel dual inhibitors of VEGF receptors I and II” (Bioorg Med Chem Lett, 2006).

How the values were obtained:
[1] = target: Receptor-type tyrosine-protein kinase FLT3 (Homo sapiens) (UniProt P36888); assay: Inhibition of Flt3 at 10 uM by HTRF method; set-up: scale not given: the % may be the effect or the level left
[2] = target: Vascular endothelial growth factor receptor 1 (Homo sapiens, UniProt P17948); assay: Inhibition of VEGFR1 by enzymatic assay
[3] = target: Epidermal growth factor receptor (Homo sapiens) (UniProt P00533); assay: […] against ErbB1 at 10 uM by HTRF method
[4] = target: T1, Vascular endothelial growth factor receptor 2 (Homo sapiens, UniProt P35968); assay: Inhibition of VEGFR2 by enzymatic assay
[5] = target: Insulin-like growth factor 1 receptor (Homo sapiens) (UniProt P08069); assay: […] against IGF1R at 10 uM by HTRF method
[6] = target: cAMP-dependent protein kinase (PKA) (Homo sapiens) (UniProt P22694+P17612+P22612); assay: Inhibition against PKA at 10 uM by HTRF method; type: protein assay; set-up: scale not given: the % may be the effect or the level left
[7] = target: Cyclin-dependent kinase 2 (Homo sapiens) (UniProt P24941); assay: […] against Cdk2 at 10 uM by HTRF method
[8] = target: T2, Ephrin type-B receptor 4 (Homo sapiens) (UniProt P54760); assay: Percent inhibition against EphB4 at 10 uM by HTRF method; set-up: scale not given: the % may be the effect or the level left
T2 sequence (whole entry): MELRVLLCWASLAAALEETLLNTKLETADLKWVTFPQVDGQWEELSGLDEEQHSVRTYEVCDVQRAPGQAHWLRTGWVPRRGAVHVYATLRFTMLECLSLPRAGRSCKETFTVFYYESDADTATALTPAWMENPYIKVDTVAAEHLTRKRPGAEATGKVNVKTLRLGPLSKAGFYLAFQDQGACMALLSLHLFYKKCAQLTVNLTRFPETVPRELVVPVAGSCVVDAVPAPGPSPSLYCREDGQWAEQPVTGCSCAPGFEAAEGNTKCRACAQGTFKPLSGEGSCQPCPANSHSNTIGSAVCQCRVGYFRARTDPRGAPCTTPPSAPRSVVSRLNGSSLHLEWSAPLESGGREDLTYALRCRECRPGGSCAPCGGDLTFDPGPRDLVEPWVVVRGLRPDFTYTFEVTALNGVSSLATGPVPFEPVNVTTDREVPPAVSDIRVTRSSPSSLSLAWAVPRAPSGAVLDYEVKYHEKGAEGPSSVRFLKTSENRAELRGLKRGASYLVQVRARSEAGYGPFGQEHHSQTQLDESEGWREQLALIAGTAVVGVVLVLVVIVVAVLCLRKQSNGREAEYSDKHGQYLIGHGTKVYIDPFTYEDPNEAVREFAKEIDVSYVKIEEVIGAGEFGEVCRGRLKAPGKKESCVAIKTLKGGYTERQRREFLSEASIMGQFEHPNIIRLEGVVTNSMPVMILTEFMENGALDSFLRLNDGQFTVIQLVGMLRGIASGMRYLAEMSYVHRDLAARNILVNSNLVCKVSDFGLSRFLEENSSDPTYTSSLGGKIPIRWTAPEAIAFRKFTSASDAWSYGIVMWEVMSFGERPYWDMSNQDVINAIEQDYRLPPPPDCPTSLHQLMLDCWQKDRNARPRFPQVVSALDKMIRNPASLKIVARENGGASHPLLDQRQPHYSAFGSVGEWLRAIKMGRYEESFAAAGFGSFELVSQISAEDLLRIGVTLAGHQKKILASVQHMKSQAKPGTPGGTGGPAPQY

[9] = target: Fibroblast growth factor receptor 1 (Homo sapiens) (UniProt P11362); assay: Percent inhibition against FGFR1 at 10 uM by HTRF method; set-up: scale not given: the % may be the effect or the level left
[10] = target: Receptor tyrosine-protein kinase erbB-2 (Homo sapiens) (UniProt P04626); assay: […] against ErbB2 at 10 uM by HTRF method
[11] = target: T1, Vascular endothelial growth factor receptor 2; assay: Inhibition of VEGFR2 in 293 adenovirus transfected kidney cells by cell-based ELISA assay
[12] = target: RAC-alpha serine/threonine-protein kinase (Homo sapiens) (UniProt P31749); assay: […] against PKB/Akt at 10 uM by HTRF method
[13] = target: Cyclin-dependent kinase 5 (Homo sapiens) (UniProt Q00535); assay: […] against Cdk5 at 10 uM by HTRF method
[14] = target: Bcr/Abl fusion protein (Homo sapiens) (UniProt P00519+P11274); assay: Inhibition of bcr-Abl at 10 uM by HTRF method; type: protein assay; set-up: scale not given: the % may be the effect or the level left
[15] = target: Glycogen synthase kinase-3 beta (Homo sapiens) (UniProt P49841); assay: Inhibition against GSK3-beta at 10 uM by HTRF method; set-up: scale not given: the % may be the effect or the level left
[16] = target: Hepatocyte growth factor receptor (Homo sapiens) (UniProt P08581); assay: Percent inhibition against c-Met at 10 uM by HTRF method; set-up: scale not given: the % may be the effect or the level left

Chain of Glycogen synthase kinase-3 beta (Homo sapiens) (P49841 whole entry, looked up): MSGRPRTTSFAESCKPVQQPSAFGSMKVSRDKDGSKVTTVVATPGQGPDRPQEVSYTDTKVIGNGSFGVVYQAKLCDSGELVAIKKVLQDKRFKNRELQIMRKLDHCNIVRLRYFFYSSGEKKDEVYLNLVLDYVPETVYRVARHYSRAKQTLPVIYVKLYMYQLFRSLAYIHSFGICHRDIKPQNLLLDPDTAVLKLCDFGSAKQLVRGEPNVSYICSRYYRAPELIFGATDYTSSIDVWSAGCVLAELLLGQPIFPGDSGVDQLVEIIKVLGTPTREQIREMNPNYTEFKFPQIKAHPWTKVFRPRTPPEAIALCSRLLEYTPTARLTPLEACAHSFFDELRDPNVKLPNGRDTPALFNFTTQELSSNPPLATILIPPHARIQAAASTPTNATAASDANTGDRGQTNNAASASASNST
Chain of Vascular endothelial growth factor receptor 1 (P17948 whole entry): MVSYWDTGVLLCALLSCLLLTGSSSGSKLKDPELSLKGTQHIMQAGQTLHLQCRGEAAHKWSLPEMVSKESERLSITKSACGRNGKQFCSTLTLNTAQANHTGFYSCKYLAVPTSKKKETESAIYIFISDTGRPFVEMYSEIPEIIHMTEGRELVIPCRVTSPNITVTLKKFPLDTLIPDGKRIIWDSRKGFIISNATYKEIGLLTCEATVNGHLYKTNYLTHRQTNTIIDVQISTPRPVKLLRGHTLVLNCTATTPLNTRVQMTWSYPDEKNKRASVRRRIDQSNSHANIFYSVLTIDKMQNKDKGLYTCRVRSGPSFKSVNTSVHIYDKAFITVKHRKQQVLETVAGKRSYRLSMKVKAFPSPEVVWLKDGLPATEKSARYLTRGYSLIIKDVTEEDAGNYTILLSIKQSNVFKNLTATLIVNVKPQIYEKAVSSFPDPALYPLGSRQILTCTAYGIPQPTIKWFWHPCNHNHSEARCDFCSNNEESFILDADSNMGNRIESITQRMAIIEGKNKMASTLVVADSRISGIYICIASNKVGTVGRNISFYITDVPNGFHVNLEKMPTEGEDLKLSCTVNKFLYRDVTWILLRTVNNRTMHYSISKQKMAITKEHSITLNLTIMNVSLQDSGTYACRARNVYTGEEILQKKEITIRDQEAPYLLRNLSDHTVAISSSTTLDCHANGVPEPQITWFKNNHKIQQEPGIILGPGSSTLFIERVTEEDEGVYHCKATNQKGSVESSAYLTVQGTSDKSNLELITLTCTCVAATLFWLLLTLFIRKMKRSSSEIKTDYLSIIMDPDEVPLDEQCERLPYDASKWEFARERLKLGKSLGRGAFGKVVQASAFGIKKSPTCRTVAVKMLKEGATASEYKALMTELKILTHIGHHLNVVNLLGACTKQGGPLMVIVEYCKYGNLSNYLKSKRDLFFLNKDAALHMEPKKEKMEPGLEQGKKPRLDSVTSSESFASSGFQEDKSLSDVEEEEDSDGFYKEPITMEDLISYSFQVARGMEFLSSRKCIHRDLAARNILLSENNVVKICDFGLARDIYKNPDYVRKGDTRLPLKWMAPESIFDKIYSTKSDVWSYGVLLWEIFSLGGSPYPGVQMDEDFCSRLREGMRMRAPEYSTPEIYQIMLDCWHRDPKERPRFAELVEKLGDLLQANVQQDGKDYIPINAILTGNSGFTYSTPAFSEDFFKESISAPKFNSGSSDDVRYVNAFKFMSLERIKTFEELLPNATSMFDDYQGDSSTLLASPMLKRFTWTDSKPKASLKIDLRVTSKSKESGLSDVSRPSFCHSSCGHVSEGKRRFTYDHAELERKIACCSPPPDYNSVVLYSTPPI
Chain of RAC-alpha serine/threonine-protein kinase (Homo sapiens) (P31749 whole entry): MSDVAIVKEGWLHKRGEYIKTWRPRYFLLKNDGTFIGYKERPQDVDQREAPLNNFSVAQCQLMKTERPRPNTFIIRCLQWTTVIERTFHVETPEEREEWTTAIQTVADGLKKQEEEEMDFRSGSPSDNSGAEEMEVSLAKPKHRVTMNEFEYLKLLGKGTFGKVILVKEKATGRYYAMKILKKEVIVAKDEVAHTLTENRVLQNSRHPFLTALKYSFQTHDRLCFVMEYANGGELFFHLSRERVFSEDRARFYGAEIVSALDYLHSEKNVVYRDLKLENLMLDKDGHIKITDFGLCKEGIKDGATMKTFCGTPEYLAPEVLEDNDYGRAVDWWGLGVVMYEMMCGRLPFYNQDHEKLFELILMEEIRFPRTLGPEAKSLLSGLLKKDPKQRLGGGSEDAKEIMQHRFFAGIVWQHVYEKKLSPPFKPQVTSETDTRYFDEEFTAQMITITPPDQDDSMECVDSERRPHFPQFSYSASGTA
Chain of Receptor tyrosine-protein kinase erbB-2 (Homo sapiens) (P04626 whole entry): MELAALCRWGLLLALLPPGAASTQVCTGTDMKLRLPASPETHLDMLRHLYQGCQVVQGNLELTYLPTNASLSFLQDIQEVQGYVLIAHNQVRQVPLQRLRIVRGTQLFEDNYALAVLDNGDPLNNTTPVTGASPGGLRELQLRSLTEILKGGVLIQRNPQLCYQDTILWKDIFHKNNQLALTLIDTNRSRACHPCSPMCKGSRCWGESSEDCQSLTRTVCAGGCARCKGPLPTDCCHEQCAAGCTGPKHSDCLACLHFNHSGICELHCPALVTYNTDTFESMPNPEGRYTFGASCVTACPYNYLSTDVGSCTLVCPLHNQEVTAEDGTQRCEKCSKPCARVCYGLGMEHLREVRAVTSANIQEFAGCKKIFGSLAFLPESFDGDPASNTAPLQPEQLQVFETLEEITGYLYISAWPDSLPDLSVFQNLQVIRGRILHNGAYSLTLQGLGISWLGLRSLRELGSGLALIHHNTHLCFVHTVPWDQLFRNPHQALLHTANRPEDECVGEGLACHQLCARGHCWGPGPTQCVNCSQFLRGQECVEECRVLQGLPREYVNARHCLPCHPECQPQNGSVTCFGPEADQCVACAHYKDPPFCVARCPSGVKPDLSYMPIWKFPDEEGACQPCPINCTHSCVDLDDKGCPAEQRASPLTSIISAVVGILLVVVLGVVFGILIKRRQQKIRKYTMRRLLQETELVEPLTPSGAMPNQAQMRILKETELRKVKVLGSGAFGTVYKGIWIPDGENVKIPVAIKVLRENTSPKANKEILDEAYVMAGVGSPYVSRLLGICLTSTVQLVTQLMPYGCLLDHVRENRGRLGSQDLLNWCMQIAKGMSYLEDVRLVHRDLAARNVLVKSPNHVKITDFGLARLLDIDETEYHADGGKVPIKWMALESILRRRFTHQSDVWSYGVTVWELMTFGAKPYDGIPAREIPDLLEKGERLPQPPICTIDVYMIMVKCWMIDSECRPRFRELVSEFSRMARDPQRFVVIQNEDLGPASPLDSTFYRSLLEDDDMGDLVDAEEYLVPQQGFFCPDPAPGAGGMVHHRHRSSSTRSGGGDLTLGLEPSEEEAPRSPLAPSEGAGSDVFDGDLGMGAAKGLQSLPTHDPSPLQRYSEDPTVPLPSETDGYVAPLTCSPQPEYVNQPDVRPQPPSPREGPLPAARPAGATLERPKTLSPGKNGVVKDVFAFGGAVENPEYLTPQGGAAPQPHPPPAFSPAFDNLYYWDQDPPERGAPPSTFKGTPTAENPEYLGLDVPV
Chain of Fibroblast growth factor receptor 1 (Homo sapiens) (P11362 22-822 limits assumed): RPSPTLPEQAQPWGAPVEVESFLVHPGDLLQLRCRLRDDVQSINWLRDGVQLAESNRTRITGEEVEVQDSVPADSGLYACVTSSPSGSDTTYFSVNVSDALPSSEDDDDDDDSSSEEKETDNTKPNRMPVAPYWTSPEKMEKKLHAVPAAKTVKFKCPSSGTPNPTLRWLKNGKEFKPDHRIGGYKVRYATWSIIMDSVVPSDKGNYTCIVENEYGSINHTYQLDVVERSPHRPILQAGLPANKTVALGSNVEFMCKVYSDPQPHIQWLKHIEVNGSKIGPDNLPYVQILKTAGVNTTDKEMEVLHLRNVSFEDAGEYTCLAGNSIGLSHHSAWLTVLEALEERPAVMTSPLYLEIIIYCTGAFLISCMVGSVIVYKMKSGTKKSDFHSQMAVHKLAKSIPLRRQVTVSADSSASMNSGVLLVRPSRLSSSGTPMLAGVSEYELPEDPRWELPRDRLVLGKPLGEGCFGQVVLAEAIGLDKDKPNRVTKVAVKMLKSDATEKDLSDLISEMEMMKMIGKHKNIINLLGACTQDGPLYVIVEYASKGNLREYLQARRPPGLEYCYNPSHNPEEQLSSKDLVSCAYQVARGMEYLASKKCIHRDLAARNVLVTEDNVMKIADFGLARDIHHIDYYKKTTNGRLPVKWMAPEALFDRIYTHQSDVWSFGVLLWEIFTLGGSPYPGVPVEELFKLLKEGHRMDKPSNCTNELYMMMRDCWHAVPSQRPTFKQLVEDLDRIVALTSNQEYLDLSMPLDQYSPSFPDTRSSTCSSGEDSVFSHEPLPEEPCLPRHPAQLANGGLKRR
Chain of Cyclin-dependent kinase 5 (Homo sapiens) (Q00535 whole entry, looked up, the tested form may be a part): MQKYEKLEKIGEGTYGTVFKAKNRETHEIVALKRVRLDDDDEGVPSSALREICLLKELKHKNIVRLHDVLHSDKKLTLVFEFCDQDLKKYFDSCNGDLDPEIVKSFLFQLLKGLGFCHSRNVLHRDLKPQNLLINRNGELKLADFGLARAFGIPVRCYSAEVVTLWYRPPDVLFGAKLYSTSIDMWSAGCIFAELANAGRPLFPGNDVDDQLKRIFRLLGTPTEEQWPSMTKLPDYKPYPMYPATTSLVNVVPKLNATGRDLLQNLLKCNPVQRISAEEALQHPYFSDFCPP

SMILES | Activity [1] [%] | IC50 [2] [µM] | Percent inhibition [3] [%] | IC50 [4] [µM] | Activity [5] [%] | Activity [6] [%] | Percent inhibition [7] [%] | Activity [8] [%] | Activity [9] [%] | Activity [10] [%] | IC50 [11] [µM] | Activity [12] [%] | Activity [13] [%] | Activity [14] [%] | Activity [15] [%] | Activity [16] [%]
Cn1cnc(NCc2ccc3[nH]ncc3c2)c1-c1nnc(Nc2ccc(Cl)cc2)o1 | < 30 | > 10 | < 30 | 2.37 | < 30 | < 30 | < 30 | < 30 | < 30 | < 30 | > 10 | < 30 | < 30 | < 30 | < 30 | < 30
COc1ccccc1Nc1nnc(-c2c(NCc3ccncc3)ncn2C)o1 | < 30 |  | < 30 |  | < 30 | < 30 | < 30 | < 30 | < 30 | < 30 |  | < 30 | < 30 | < 30 | < 30 | < 30
Cc1cccc(Nc2nnc(-c3c(NCc4ccncc4)ncn3C)o2)c1 | < 30 | 1.26 | < 30 | 0.71 | < 30 | < 30 | < 30 | < 30 | < 30 | < 30 |  | < 30 | < 30 | < 30 | < 30 | < 30
CC(C)c1ccc(Nc2nnc(-c3c(NCc4ccncc4)ncn3C)o2)cc1 | < 30 | 0.77 | < 30 | 0.44 | < 30 | < 30 | < 30 | < 30 | < 30 | < 30 | 1.15 | < 30 | < 30 | < 30 | < 30 | < 30
Cn1cnc(NCc2ccncc2)c1-c1nnc(Nc2ccc(Cl)cc2)o1 | < 30 | 0.34 | < 30 | 0.25 | < 30 | < 30 | < 30 | < 30 | < 30 | < 30 | 0.57 | < 30 | < 30 | < 30 | < 30 | < 30
Cn1cnc(NCCc2ccc3c(c2)OCO3)c1-c1nnc(Nc2ccc(Cl)cc2)o1 | < 30 | 1.47 | < 30 | 0.96 | < 30 | < 30 | < 30 | < 30 | < 30 | < 30 | > 10 | < 30 | < 30 | < 30 | < 30 | < 30
Cn1cnc(NCc2ccncc2)c1-c1nnc(Nc2ccc(-c3ccccc3)cc2)o1 | < 30 | > 10 | < 30 | 3.22 | < 30 | < 30 | < 30 | < 30 | < 30 | < 30 |  | < 30 | < 30 | < 30 | < 30 | < 30
Cn1cnc(NCc2ccncc2)c1-c1nnc(NCc2ccc3c(c2)OCO3)o1 | < 30 | 0.44 | < 30 | 0.14 | < 30 | < 30 | < 30 | < 30 | < 30 | < 30 | 0.27 | < 30 | < 30 | < 30 | < 30 | < 30
Cn1cnc(NCc2cccnc2)c1-c1nnc(Nc2ccc(Cl)cc2)o1 | < 30 | > 10 | < 30 | > 10 | < 30 | < 30 | < 30 | < 30 | < 30 | < 30 | > 10 | < 30 | < 30 | < 30 | < 30 | < 30
Cn1cnc(NCc2ccncc2)c1-c1nnc(Nc2ccc(Cl)c(Cl)c2)o1 | < 30 | 0.49 | < 30 | 0.18 | < 30 | < 30 | < 30 | < 30 | < 30 | < 30 | 0.26 | < 30 | < 30 | < 30 | < 30 | < 30
Cc1ccc(Nc2nnc(-c3c(NCc4ccncc4)ncn3C)o2)c(F)c1 | < 30 | 0.59 | < 30 | 0.26 | < 30 | < 30 | < 30 | < 30 | < 30 | < 30 | 0.64 | < 30 | < 30 | < 30 | < 30 | < 30
Cn1cnc(NCc2ccncc2)c1-c1nnc(Nc2ccc(Cc3ccccc3)cc2)o1 | < 30 | > 10 | < 30 | > 10 | < 30 | < 30 | < 30 | < 30 | < 30 | < 30 |  | < 30 | < 30 | < 30 | < 30 | < 30
Cc1ccccc1Nc1nnc(-c2c(NCc3ccncc3)ncn2C)o1 | < 30 | > 10 | < 30 | > 10 | < 30 | < 30 | < 30 | < 30 | < 30 | < 30 |  | < 30 | < 30 | < 30 | < 30 | < 30
Cn1cnc(NCc2ccncc2)c1-c1nnc(Nc2ccc(Oc3ccccc3)cc2)o1 | < 30 | > 10 | < 30 | > 10 | < 30 | < 30 | < 30 | < 30 | < 30 | < 30 |  | < 30 | < 30 | < 30 | < 30 | < 30
Cn1cnc(NCc2ccncc2)c1-c1nnc(Nc2ccc(Br)cc2)o1 | < 30 | 1.47 | < 30 | 0.73 | < 30 | < 30 | < 30 | < 30 | < 30 | < 30 |  | < 30 | < 30 | < 30 | < 30 | < 30
